Results as given in patent US4410516A, “1-N(αHydroxy-ω-aminoalkanoyl) derivatives of 5,3',4'-trideoxy- or 5,3', 4'-trideoxy-6'-N- methyl- or 5, 3', 4',6"-tetradeoxykannamyci B and production thereof” (Zaidan Hojin Biseibutsu Kagaku Kenkyu Kai, priority 1981, dated 1983).
Values after ≈ are worked out from the molar mass of the structure shown. Like-named read-outs stand apart in the source and are kept apart here.

What was measured:
Format in all cases: cell-based
[1] = system: Pseudomonas aeruginosa K-Ps102; experiment: Minimum inhibitory concentration, serial dilution on nutrient agar
[2] = system: Pseudomonas aeruginosa ROS134/PU21; experiment: as above; conditions: ROS134/PU21, 18 h
[3] = system: Pseudomonas aeruginosa GN315; experiment: as above; conditions: GN315, 18 h
[4] = system: Pseudomonas aeruginosa No. 12; experiment: as above
Escherichia coli NIHJ = experiment: as above
Serratia marcescens = experiment: as above; conditions: 37° C., 18 hours incubation
[5] = system: Pseudomonas maltophilia GN907; experiment: as above; conditions: Stenotrophomonas maltophilia, 37° C., 18 hours incubation
[6] = system: Escherichia coli K-12 R 388; experiment: as above; conditions: K12R388, 18 h
Escherichia coli JR255 = experiment: as above
Providencia Pv 16 = experiment: as above; conditions: PV16, 37° C., 18 hours incubation
[7] = system: Pseudomonas aeruginosa H11; experiment: as above; conditions: H11, 18 h
Proteus vulgaris OX19 = experiment: as above; conditions: 37° C., 18 hours incubation
[8] = system: Staphylococcus aureus AP01; experiment: as above; conditions: 37° C., 18 hours incubation
[9] = system: Staphylococcus aureus Smith; experiment: as above; conditions: 37° C., 18 hours incubation
[10] = system: Escherichia coli K-12 ML 1629; experiment: as above
Serratia 4 = experiment: as above; conditions: 37° C., 18 hours incubation
Sarcina lutea PCI 1001 = experiment: as above; conditions: Micrococcus luteus, PCI1001, 18 h
Escherichia coli K-12 R5 = experiment: as above; conditions: K12R5, 18 h
[11] = system: Micrococcus flavus FDA 16; experiment: as above; conditions: FDA16, 18 h
Bacillus anthracis = experiment: microbe, parasite or virus in culture; conditions: 18 h
[12] = system: Escherichia coli K-12 ML 1410; experiment: Minimum inhibitory concentration, serial dilution on nutrient agar; conditions: K12ML1410, 18 h
Salmonella typhi T-63 = experiment: as above; conditions: Salmonella enterica, 18 h
[13] = system: Pseudomonas aeruginosa 21-75; experiment: as above; conditions: 2175, 37° C., 18 hours incubation
[14] = system: Bacillus cereus ATCC 10702; experiment: as above; conditions: ATCC10702, 18 h
[15] = system: Escherichia coli JR66/W677; experiment: as above; conditions: JR66/W677, 18 h
Escherichia coli K-12 = experiment: as above
[16] = system: Pseudomonas aeruginosa TI-13; experiment: as above
[17] = system: Klebsiella pneumoniae PCI 602; experiment: as above; conditions: PCI602, 18 h
[18] = system: Escherichia coli K-12 LA 290 R56; experiment: as above; conditions: K12LA290R56, 18 h
[19] = system: Pseudomonas aeruginosa B-13; experiment: as above; conditions: B13, 37° C., 18 hours incubation
[20] = system: Pseudomonas aeruginosa A3; experiment: as above; conditions: 37° C., 18 hours incubation
[21] = system: Bacillus subtilis PCI 219; experiment: as above; conditions: PCI219, 37° C., 18 hours incubation
[22] = system: Pseudomonas aeruginosa H9; experiment: as above; conditions: H9, 18 h
[23] = system: Bacillus subtilis NRRL B-558; experiment: as above; conditions: NRRLB558, 37° C., 18 hours incubation
[24] = system: Staphylococcus epidermidis 109; experiment: as above; conditions: Staphylococcus epidermidis, 109; nutrient agar, 37° C., 18 hours incubation; read-out: MIC
Proteus rettgeri GN466 = experiment: as above; conditions: Providencia rettgeri, GN466, 18 h
[25] = system: Mycobacterium smegmatis ATCC 607; experiment: as above; conditions: Mycolicibacterium smegmatis, ATCC607; nutrient agar, 37° C., 18 hours incubation; read-out: MIC
[26] = system: Klebsiella pneumoniae 22 #3038; experiment: as above
[27] = system: Escherichia coli K-12 LA 290 R55; experiment: as above; conditions: K12LA290R55, 18 h
[28] = system: Pseudomonas aeruginosa 99; experiment: as above; conditions: Pseudomonas aeruginosa, 99, 18 h
Proteus rettgeri GN311 = experiment: as above; conditions: Providencia rettgeri, 37° C., 18 hours incubation
[29] = nutrient agar, 37° C., 18 hours incubation, read-out: MIC

## CNC[C@@H]1CC[C@@H](N)[C@@H](O[C@H]2C[C@@H](O[C@H]3O[C@H](CO)[C@@H](O)[C@H](N)[C@H]3O)[C@H](NC(=O)[C@@H](O)CCCN)C[C@@H]2N)O1 [AHV-trideoxyMKMB, 1-N-[(S)-5-amino-2-hydroxyvaleryl]-5,3',4'-trideoxy-6'-N-methylkanamycin B]
[1]; KPS102, 18 h
  MIC: 1.56 µg/mL (≈ 2.76 µM)
[2]
  MIC: 50 µg/mL (≈ 88.5 µM)
[3]
  MIC: 3.13 µg/mL (≈ 5.54 µM)
[4]; NO.12, 18 h
  MIC: 3.13 µg/mL (≈ 5.54 µM)
Escherichia coli NIHJ; 18 h
  MIC: 1.56 µg/mL (≈ 2.76 µM)
Serratia marcescens
  MIC: 12.5 µg/mL (≈ 22.1 µM)
[5]
  MIC: > 100 µg/mL
[6]
  MIC: 1.56 µg/mL (≈ 2.76 µM)
Escherichia coli JR255; JR255, 18 h
  MIC: 1.56 µg/mL (≈ 2.76 µM)
Providencia Pv 16
  MIC: 25 µg/mL (≈ 44.3 µM)
[7]
  MIC: 6.25 µg/mL (≈ 11.1 µM)
Proteus vulgaris OX19
  MIC: 0.78 µg/mL (≈ 1.38 µM)
[8]
  MIC: 0.39 µg/mL (≈ 0.691 µM)
[9]
  MIC: < 0.2 µg/mL
[10]; K12ML1629, 18 h
  MIC: 3.13 µg/mL (≈ 5.54 µM)
Serratia 4
  MIC: 12.5 µg/mL (≈ 22.1 µM)
Sarcina lutea PCI 1001
  MIC: 1.56 µg/mL (≈ 2.76 µM)
Escherichia coli K-12 R5
  MIC: 6.25 µg/mL (≈ 11.1 µM)
[11]
  MIC: 3.13 µg/mL (≈ 5.54 µM)
Bacillus anthracis
  MIC: < 0.2 µg/mL
[12]
  MIC: 3.13 µg/mL (≈ 5.54 µM)
Salmonella typhi T-63
  MIC: 3.13 µg/mL (≈ 5.54 µM)
[13]
  MIC: 12.5 µg/mL (≈ 22.1 µM)
[14]
  MIC: 1.56 µg/mL (≈ 2.76 µM)
[15]
  MIC: 3.13 µg/mL (≈ 5.54 µM)
Escherichia coli K-12; K12, 18 h
  MIC: 1.56 µg/mL (≈ 2.76 µM)
[16]; TI13, 18 h
  MIC: 1.56 µg/mL (≈ 2.76 µM)
[17]
  MIC: 1.56 µg/mL (≈ 2.76 µM)
[18]
  MIC: 1.56 µg/mL (≈ 2.76 µM)
[19]
  MIC: 12.5 µg/mL (≈ 22.1 µM)
[20]
  MIC: 0.39 µg/mL (≈ 0.691 µM)
[21]
  MIC: < 0.2 µg/mL
[22]
  MIC: 3.13 µg/mL (≈ 5.54 µM)
[23]
  MIC: < 0.2 µg/mL
[24]
  MIC: < 0.2 µg/mL
Proteus rettgeri GN466
  MIC: 6.25 µg/mL (≈ 11.1 µM)
[25]
  MIC: 0.39 µg/mL (≈ 0.691 µM)
[26]; 18 h
  MIC: 3.13 µg/mL (≈ 5.54 µM)
[27]
  MIC: 3.13 µg/mL (≈ 5.54 µM)
[28]
  MIC: 6.25 µg/mL (≈ 11.1 µM)
Proteus rettgeri GN311
  MIC: 100 µg/mL (≈ 177 µM)

## NCC[C@H](O)C(=O)N[C@@H]1C[C@H](N)[C@@H](O[C@H]2O[C@H](CN)CC[C@H]2N)[C@H](O)[C@H]1O[C@H]1O[C@H](CO)[C@@H](O)[C@H](N)[C@H]1O [Habekacin, 1-N-[(S)-4-amino-2-hydroxybutyryl]-3',4'-dideoxykanamycin B, reference compound]
[1]; KPS102, nutrient agar, 37° C., 18 hours incubation, read-out: MIC
  MIC: 3.13 µg/mL (≈ 5.66 µM)
[2]
  MIC: > 100 µg/mL
[3]
  MIC: 6.25 µg/mL (≈ 11.3 µM)
[4]; NO.12, nutrient agar, 37° C., 18 hours incubation, read-out: MIC
  MIC: 3.13 µg/mL (≈ 5.66 µM)
Escherichia coli NIHJ; [29]
  MIC: 3.13 µg/mL (≈ 5.66 µM)
Serratia marcescens
  MIC: 50 µg/mL (≈ 90.5 µM)
[5]
  MIC: > 100 µg/mL
[6]
  MIC: 1.56 µg/mL (≈ 2.82 µM)
Escherichia coli JR255; JR255, nutrient agar, 37° C., 18 hours incubation, read-out: MIC
  MIC: 3.13 µg/mL (≈ 5.66 µM)
Providencia Pv 16
  MIC: 25 µg/mL (≈ 45.2 µM)
[7]
  MIC: 12.5 µg/mL (≈ 22.6 µM)
Proteus vulgaris OX19
  MIC: 0.78 µg/mL (≈ 1.41 µM)
[8]
  MIC: 0.78 µg/mL (≈ 1.41 µM)
[9]
  MIC: < 0.2 µg/mL
[10]; K12ML1629, nutrient agar, 37° C., 18 hours incubation, read-out: MIC
  MIC: 3.13 µg/mL (≈ 5.66 µM)
Serratia 4
  MIC: 50 µg/mL (≈ 90.5 µM)
Sarcina lutea PCI 1001
  MIC: 1.56 µg/mL (≈ 2.82 µM)
Escherichia coli K-12 R5
  MIC: 100 µg/mL (≈ 181 µM)
[11]
  MIC: 1.56 µg/mL (≈ 2.82 µM)
Bacillus anthracis
  MIC: < 0.2 µg/mL
[12]
  MIC: 6.25 µg/mL (≈ 11.3 µM)
Salmonella typhi T-63
  MIC: 1.56 µg/mL (≈ 2.82 µM)
[13]
  MIC: 25 µg/mL (≈ 45.2 µM)
[14]
  MIC: 1.56 µg/mL (≈ 2.82 µM)
[15]
  MIC: 6.25 µg/mL (≈ 11.3 µM)
Escherichia coli K-12; K12, nutrient agar, 37° C., 18 hours incubation, read-out: MIC
  MIC: 3.13 µg/mL (≈ 5.66 µM)
[16]; TI13, nutrient agar, 37° C., 18 hours incubation, read-out: MIC
  MIC: 3.13 µg/mL (≈ 5.66 µM)
[17]
  MIC: 1.56 µg/mL (≈ 2.82 µM)
[18]
  MIC: 3.13 µg/mL (≈ 5.66 µM)
[19]
  MIC: 25 µg/mL (≈ 45.2 µM)
[20]
  MIC: 3.13 µg/mL (≈ 5.66 µM)
[21]
  MIC: < 0.2 µg/mL
[22]
  MIC: 6.25 µg/mL (≈ 11.3 µM)
[23]
  MIC: < 0.2 µg/mL
[24]
  MIC: 0.78 µg/mL (≈ 1.41 µM)
Proteus rettgeri GN466
  MIC: 12.5 µg/mL (≈ 22.6 µM)
[25]
  MIC: 0.39 µg/mL (≈ 0.706 µM)
[26]; [29]
  MIC: 3.13 µg/mL (≈ 5.66 µM)
[27]
  MIC: 6.25 µg/mL (≈ 11.3 µM)
[28]
  MIC: 6.25 µg/mL (≈ 11.3 µM)
Proteus rettgeri GN311
  MIC: 50 µg/mL (≈ 90.5 µM)
